Entries after “also recorded” stand apart in the source; their conditions may differ. Where two headings read alike, the source gives them in different places. Positions of bridges follow the written chain, without caps; N, C: chain ends.
B1: BMP-7: bone morphogenetic protein-7; recombinant human BMP7, positive control (protein)
chain: STGSKQRSQNRSKTPKNQEALRMANVAENSSSDQRQACKKHELYVSFRDLGWQDWIIAPEGYAAYYCEGECAFPLNSYMNATNHAIVQTLVHFINPETVPKPCCAPTQLNAISVLYFDDSSNVILKKYRNMVVRACGCH

Assays:
NP-1 cells = assay: TGF-β-induced apoptosis in NP-1 cells (Annexin V); format: cell-based; conditions: TGF-β 3 ng/ml 24 h; BMP-7 1 μg/ml, THR-123 10 μM
Protocol: FIG. 48A-FIG. 48D THR-123 inhibits TGF-β-induced apoptosis in NP-1 cells. NP-1 cells are incubated with TGF-β (3 ng/ml) for 24 h in the presence of indicated molecules. Apoptosis was analyzed by Annexin V labeling (Roche). Representative merged picture (Green: Annexin V and bright field image) of cells treated with TGF-β only (FIG. 48A), TGF-β+BMP-7 (1 μg/ml) (FIG. 48B), TGF-β+THR-123 (10 μM) (FIG. 48C) and TGF-β+ctrl peptide (FIG. 48D).

HK-2 cells = assay: TNF-α-induced inflammatory cytokine production in HK-2 cells (ELISA); format: cell-based, human; conditions: HK-2 cells
Protocol: FIG. 37 provides a bar graph showing a comparison of the effects of THR-123 (or “THR-1405”) and the specific inhibitor SB 203580 on the level of TNF-α-induced IL-6 production, an inflammatory marker, in human renal tubule epithelial cells (HK-2).
FIG. 47A-FIG. 47C Anti-inflammatory activity of THR-123. PTEC-derived HK-2 (HK-2) cells were culture on 24-well plate (30,000 cells/well). Cells are exposed to K-SFM medium alone or TNF-α (5 ng/ml). Twenty hours after TNF-α incubation, cells are washed twice by pre-warmed culture media and subsequently cells are incubated with various concentration of THR-123 or BMP7 for 60 hours. At the end of incubation, culture medias are harvested and ELISA analysis are performed. FIG. 47A: IL-6, FIG. 47B: IL-8 and FIG. 47C: ICAM-1 results are shown. Analyze are performed in triplicates and data are shown as mean±s.e.m. in the graph.
Preliminary screening for optimization was based on anti-inflammatory efficacy in an in vitro cell-based assay using a human renal tubular epithelial cell line (HK-2). The assay tested the ability of compounds to reverse the increase in production of cytokine IL-6 that resulted from stimulation of the cells with tumor necrosis factor (TNF)-α. Sequence-activity analysis was carried out using the SVA program. After six optimization cycles, THR-123 (FIG. 2A) emerged as the lead compound, which was further evaluated in other relevant anti-fibrosis assays (vide infra).
Human proximal tubular epithelial cells-derived HK-2 cells were culture on 24-well plate (30,000 cells/well). Cells are exposed to K-SFM medium alone or […] (5 ng/ml). Twenty hours after TNF-α incubation, cells are washed twice by pre-warmed culture media and subsequently cells are incubated with various concentration of THR-123 or BMP7 for 60 hours. At the end of incubation, culture medias are harvested and ELISA analysis for IL-6, IL-8 and ICAM-1 are performed.

UUO animals = assay: Unilateral ureteral obstruction (UUO), FIG. 33-34; format: in vivo; conditions: for hydroxyproline content (total collagen) of UUO kidneys: 3-fold increase in vehicle-treated UUO kidneys; for expansion of the interstitial space: UUO animals showed 3 fold expansion
Source text: In the animals given BMP-7 or […] Hydroxyproline content, a measure of total collagen, increased 3-fold in the vehicle-treated UUO kidneys compared with sham-operated kidneys. […]

p38 MAPK = p38 MAPK phosphorylation in HK-2 cells; format: cell-based, human
Source text: The significance of p38 MAPK is that this protein is implicated as a non-Smad-dependent pathway for TGF-β-dependent EMT. Other non-Smad-dependent pathways implicated in TGF-β-dependent EMT include RhoA, Ras, PI3 kinase, Notch, and Wnt signaling pathways.
It has been shown that regulation p38 MAPK activity by pro-inflammatory factors has implications in fibrosis.

Alk-3 = biological target: T1, Alk-3 (Homo sapiens, UniProt P36894); assay: Radio-ligand (125I-BMP7) receptor binding assay, Alk-3 ECD
T1 construct: Highly purified extra-cellular domain (ECD) of Alk-3 or Alk-6 (expressed as a fusion protein with Fc domain) served as a receptor
Source text: FIG. 45A-FIG. 45G Pharmacokinetics of THR-123. FIG. 45A. BMP7 structure figure with the residue weights resulting from the analysis mapped on to it. FIG. 45B, FIG. 45C. Radio-ligand receptor binding assays specific for individual type I receptors, Alk-3 (FIG. 45B) and Alk-6 (FIG. 45C). Highly purified extra-cellular domain (ECD) of Alk-3 or Alk-6 (expressed as a fusion protein with Fc domain) served as a receptor. In each assay purified receptor was immobilized on each well and peptide analog or unlabeled BMP7 was added, followed by ^125I-labeled BMP7. Radiolabeled BMP7 complex was counted in an auto-gamma counter. Results were expressed as the mean±s.e.m. […] Concentration of THR-123 in systemic circulation of Wistar rats following iv injection of THR-123 (^125I-Tyr) via the tail vein determined by total radioactivity measurement. […] Six hours after intravenous administration of ^125I labeled-THR-123 in rats at a dose of 6.25 mg/kg-body weight, tissues were harvested and analyzed by automatic gamma well counter. […] Radioactivity of orally administrated ^125I labeled-THR-123 at a dose of 5 mg/kg body weight was localized in the kidney between 1 and 6 hours after administration and peaked at around 3 hours.
First, specific affinity of the extra cellular domains (ECD) of the several type I receptors of BMPs to THR-123 was analyzed. […]

T1 sequence (P36894 24-152 limits assumed, species assumed): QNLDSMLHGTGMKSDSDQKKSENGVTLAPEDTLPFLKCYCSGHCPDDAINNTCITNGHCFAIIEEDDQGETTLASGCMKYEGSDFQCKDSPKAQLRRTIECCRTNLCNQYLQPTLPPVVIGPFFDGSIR

| Molecule | TGF-β-induced apoptosis (NP-1 cells) | TNF-α-induced ICAM-1 production (HK-2 cells) | TNF-α-induced IL-8 production (HK-2 cells) | TNF-α-induced IL-6 production (HK-2 cells; listed as THR-123) | hydroxyproline content (total collagen) of UUO kidneys (UUO animals) | expansion of the interstitial space (UUO animals) | TNF alpha induced p38 phosphorylation (p38 MAPK; HK-2 cells) | basal p38 phosphorylation (p38 MAPK; HK-2 cells) | potency on p38 phosphorylation relative to SB 203580 (p38 MAPK; THR-123 1 uM versus specific inhibitor 10 uM) | binding to ALK3 (competition with 125I-BMP7) (Alk-3; listed as THR-123) | TNF-α-induced IL-6 production (HK-2 cells) | binding to ALK3 (competition with 125I-BMP7) (Alk-3) |
| --- | --- | --- | --- | --- | --- | --- | --- | --- | --- | --- | --- | --- |
| (H)-CYFDDSSNVLCKKYRS-(OH) (H-CYFDDSSNVLCKKYRS-OH; disulfide 1-11; SMILES CC(C)C[C@@H]1NC(=O)[C@H](C(C)C)NC(=O)[C@H](CC(N)=O)NC(=O)[C@H](CO)NC(=O)[C@H](CO)NC(=O)[C@H](CC(=O)O)NC(=O)[C@H](CC(=O)O)NC(=O)[C@H](Cc2ccccc2)NC(=O)[C@H](Cc2ccc(O)cc2)NC(=O)[C@@H](N)CSSC[C@@H](C(=O)N[C@@H](CCCCN)C(=O)N[C@@H](CCCCN)C(=O)N[C@@H](Cc2ccc(O)cc2)C(=O)N[C@@H](CCCNC(=N)N)C(=O)N[C@@H](CO)C(=O)O)NC1=O) [SEQ ID NO: 1] | decreased apoptosis | inhibits | inhibits | inhibited TNF-α induced IL-6 production in dose dependent manner; also recorded: significantly reduced | effectively decreased | significantly reduced | effectively inhibited | effectively inhibited | as potent as 10 uM of the specific inhibitor | competes with BMP7; also recorded: binds | – | – |
| B1 | decreased apoptosis | – | – | – | effectively decreased | significantly reduced | – | inhibited p38 phosphorylation | – | – | inhibited TNF-α induced IL-6 production in dose dependent manner | binds |

Reference: patent US20160058829A1, “ANTI-FIBROTIC PEPTIDES AND THEIR USE IN METHODS FOR TREATING DISEASES AND DISORDERS CHARACTERIZED BY FIBROSIS” (Thrasos Innovation, Inc., priority 2011, published 2016)
